From PubChem BioAssay (NCI)
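Values below derive from 48-hour exposures of cells grown in 96-well plates, with endpoints linearly interpolated between the two concentrations bracketing the appropriate inhibition level. At the GI50, growth is halved. The concentration for full growth arrest is given as TGI.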

How the values were obtained:
Experiment in all cases: growth of human tumour cells (NCI), 48 h
[1] = system: OVCAR-3 ovarian
[2] = system: M14 melanoma
[3] = system: UO-31 renal
[4] = system: ACHN renal
[5] = system: UACC-62 melanoma
[6] = system: HOP-92 NSCLC
[7] = system: HL-60(TB) leukemia
[8] = system: CCRF-CEM leukemia
[9] = system: SK-MEL-28 melanoma
[10] = system: T-47D breast

| Compound | GI50 [1] | TGI [1] | GI50 [2] | TGI [2] | GI50 [3] | TGI [3] | GI50 [4] | TGI [4] | GI50 [5] | TGI [5] | GI50 [6] | TGI [6] | GI50 [7] | TGI [7] | GI50 [8] | TGI [8] | TGI [9] | TGI [10] | GI50 [10] | GI50 [9] |
| --- | --- | --- | --- | --- | --- | --- | --- | --- | --- | --- | --- | --- | --- | --- | --- | --- | --- | --- | --- | --- |
| COc1ccc(C(c2cc(OC)c(OC)c(OC)c2)n2cncn2)cc1O (configuration not stated) | 0.323 µM | 1.48 µM | 0.374 µM | > 100 µM | 0.903 µM | > 100 µM | 0.653 µM | > 100 µM | 0.55 µM | > 100 µM | 9.69 µM | > 100 µM | 0.261 µM | 0.687 µM | 0.402 µM | > 100 µM |  |  |  |  |
| CN(C)C=Nc1nc(=O)n(C2CCC(CO)O2)cc1F (configuration not stated) |  | > 100 µM |  | > 100 µM |  | > 100 µM |  | > 100 µM |  |  |  | > 100 µM |  | > 100 µM |  | > 100 µM | > 100 µM |  |  |  |
| COc1ccc2c(c1)[n+]([O-])c(C(N)=O)c(N)[n+]2[O-] |  | 98.5 µM |  | > 100 µM |  | > 100 µM |  | > 100 µM |  |  |  | > 100 µM |  | > 100 µM |  |  | > 100 µM |  |  |  |
| CCOC(=O)C1=C(C)N(NC(=O)Nc2ccccc2)C2(N)N(NC(=O)Nc3ccccc3)C(C)=C(C(=O)OCC)C12C(=O)OCC (configuration not stated) |  | > 100 µM |  | > 100 µM |  | > 100 µM |  | > 100 µM |  | > 100 µM |  | 42.8 µM |  | > 100 µM |  |  | > 100 µM |  |  |  |
| C=C(C)C(=O)O[C@@H]1C[C@@]2(C)O[C@@H]2C[C@H](O)/C(C)=C/[C@H]2OC(=O)C(=C)[C@@H]21 |  | > 100 µM |  | > 100 µM |  |  |  | > 100 µM |  | > 100 µM |  | > 100 µM |  |  |  | 63.6 µM | 56.5 µM | > 100 µM |  |  |
| C/C(CN1C(=O)c2ccccc2C1=O)=N\NS(=O)(=O)c1ccc(Cl)cc1 |  | > 100 µM |  | > 100 µM |  | > 100 µM |  | > 100 µM |  | > 100 µM |  |  |  | > 100 µM |  | > 100 µM |  |  |  |  |
| CC#Cc1ccc(-c2ccccc2)s1 |  | > 100 µM |  | > 100 µM |  | > 100 µM |  | > 100 µM |  | > 100 µM |  | > 100 µM |  | > 100 µM |  | > 100 µM | > 100 µM |  |  |  |
| COc1ccc(/C=C/COC(C)=O)cc1OC |  | > 100 µM |  |  |  | > 100 µM |  | > 100 µM |  | > 100 µM |  | > 100 µM |  |  |  |  | > 100 µM |  |  |  |
| Cn1cc(-c2cc3c(N4CCN(c5ncc([C@@](C)(N)c6ccc(F)cc6)cn5)CC4)ncnn3c2)cn1 |  |  | 4.42 µM | > 100 µM | 1.84 µM | > 100 µM | 3.26 µM | > 100 µM | 5.23 µM | > 100 µM |  |  | 3.8 µM | > 100 µM | 2.87 µM | > 100 µM |  |  |  |  |
| O=C(/C=C/c1c(O)ccc2ccccc12)c1ccc([N+](=O)[O-])cc1 |  | 39.8 µM |  | 41.6 µM |  | > 61.7 µM |  | 54 µM |  | 33.3 µM |  | 30.9 µM |  | 48.6 µM |  | > 75.8 µM | > 67.6 µM |  |  |  |
| CN(C)CC1CCCC/C1=N/O (configuration not stated) |  | > 100 µM |  | > 100 µM |  | > 100 µM |  | > 100 µM |  | > 100 µM |  | > 100 µM |  | > 100 µM |  | > 100 µM | > 100 µM |  |  |  |
| CC(=O)[O-].CC(=O)[O-].O=C(N/N=C/c1cc(Cl)cc(Cl)c1O)c1ccncc1.[Cu+2] |  | > 100 µM |  | > 100 µM |  | > 100 µM |  | > 100 µM |  | > 100 µM | > 100 µM | > 100 µM |  | > 100 µM |  | > 100 µM | > 100 µM |  |  |  |
| COc1c(CC(C)=O)ccc2c1C(=O)c1ccc(C=O)c(OC(C)=O)c1C2=O |  | 35.3 µM |  | 25.6 µM |  | 41.4 µM |  | 51.3 µM |  | 18.5 µM |  | 44.1 µM |  | 22.4 µM |  | 55.9 µM | 23 µM |  |  |  |
| Cc1nnc2ccnn2c1C | > 100 µM | > 100 µM |  |  | > 100 µM | > 100 µM | > 100 µM | > 100 µM | > 100 µM | > 100 µM | > 100 µM | > 100 µM | > 100 µM | > 100 µM | > 100 µM | > 100 µM | > 100 µM | > 100 µM | > 100 µM | > 100 µM |
| N#CCCC[Si]12OCCN(CCO1)CCO2 |  | > 100 µM |  |  |  | > 100 µM |  | > 100 µM |  | > 100 µM |  | > 100 µM |  | > 100 µM |  | > 100 µM | > 100 µM |  |  |  |
| Cc1ccc(S(=O)(=O)N2CCC2c2ccccc2)cc1 (configuration not stated) |  | > 100 µM |  | > 100 µM |  | > 100 µM |  | > 100 µM |  | > 100 µM |  | 78.8 µM |  | 40.6 µM |  | > 100 µM | > 100 µM |  |  |  |
| COc1ccc(CN2C(=O)C(Cl)=C(Nc3cccc(C(F)(F)F)c3)C2=O)cc1 | 4.19 µM | 15.8 µM |  |  | 5.54 µM | 32 µM | 6.71 µM | 20.5 µM | 5.33 µM | 19.1 µM | 0.885 µM | 27 µM | 2.56 µM | 19.5 µM | 2.54 µM | 17.4 µM | 18.2 µM | 21.5 µM | 3.88 µM | 4.89 µM |
| C[C@@]1(O)CC[C@]2(C)C3CCCC3[C@H]12 (some centres not stated) |  | > 100 µM |  | > 100 µM |  | > 100 µM |  | > 100 µM |  | > 100 µM |  | > 100 µM |  | > 100 µM |  | > 100 µM | > 100 µM |  |  |  |
| CN1CCN(c2ccc(Nc3ncc(Cl)c(NC[C@@H]4CCCO4)n3)cc2)CC1 | 2.53 µM | > 100 µM | 1.13 µM | 11.2 µM |  |  | 0.973 µM | > 100 µM | 1.95 µM | 10.5 µM | 1.68 µM | 6.44 µM | 1.48 µM | 4.76 µM | 0.466 µM | 9.04 µM | 21.5 µM | 58.3 µM | 5.8 µM | 4.18 µM |
| CC(=O)OC1(C)N=NC2(CCCCC2)O1 (configuration not stated) |  | > 100 µM |  | > 100 µM |  |  |  | > 100 µM |  | > 100 µM |  | > 100 µM |  | > 100 µM |  | > 100 µM | > 100 µM | > 100 µM |  |  |
